Test results: patent US20170217956A1, “AZAINDOLE RETINOIC ACID RECEPTOR-RELATED ORPHAN RECEPTOR MODULATORS AND USES THEREOF” (INNOV17 LLC, priority 2014, published 2017)

Tests used:
Type in all cases: cell-based
Conditions in all cases: 72 h; human CD4+ T cells under TH17-polarizing conditions, 3 days, supernatant ELISA, 0.1% DMSO
[1] = test system: IL-21; test: Human TH17 cytokine inhibition as measured by ELISA (IL-21)
Protocol: (§1) Peripheral blood mononuclear cells (PBMCs) were sourced from freshly prepared leukocyte enriched plasma (buffy coat) from healthy donors (New York Blood Center). PBMCs were isolated by density gradient centrifugation using Ficoll-Paque™ PLUS (GE Healthcare). Human CD4+ T cells were seeded into 96-well plates (5×10^4 cells/well) and activated with plate-bound anti-human (h)-CD3 antibody and soluble h-aCD28 (both at 1 ug/ml; eBioscience) and differentiated into TH17 cells with 20 ng/mL h-IL-6, 5 ng/mL h-TGF-β1, 10 ng/mL h-IL-23 (eBioscience) and 10 ng/mL IL-1β (Miltenyi Biotec) in serum-free TexMACS Medium (Miltenyi Biotec) supplemented with 1% Penicillin/Streptomycin (Lonza) for 3 days. CD4+ T cells propagated under TH17-polarizing conditions were cultured in the presence or absence of various concentrations of compounds with a final concentration of 0.1% DMSO. Supernatants were collected and stored at −20° C. until assayed for IL-17A, IL-17F and IL-21 levels by “Ready-Set-Go” ELISA kits (eBioscience) as per manufacturer's instructions. Endpoint absorbance was read at 450 nm using a microplate reader (Perkin Elmer).

[2] = test system: IL-17F; test: Human TH17 cytokine inhibition as measured by ELISA (IL-17F)
Protocol: as §1

[3] = test system: IL-17A; test: Human TH17 cytokine inhibition as measured by ELISA (IL-17A)
Protocol: as §1

[4] = test system: IL-22; test: Human TH17 cytokine inhibition as measured by ELISA (IL-22)

Measured: IC50

C[C@@H]1C[C@H](Cn2ccc3nc(-c4cn[nH]c4)ccc32)CN1C(=O)CCc1ccccc1 (racemic) [Example 41, rac.-cis-1-(4-((5-(1H-pyrazol-4-yl)-1H-pyrrolo[3,2-b]pyridin-1-yl)methyl)-2-methylpyrrolidin-1-yl)-3-phenylpropan-1-one]
< 10 µM: [1] | [2] | [3]

C[C@H]1C[C@H](Cn2ccc3nc(-c4cn[nH]c4)ccc32)CN1C(=O)CCc1ccccc1 (racemic) [Example 40, rac.-trans-1-(4-((5-(1H-pyrazol-4-yl)-1H-pyrrolo[3,2-b]pyridin-1-yl)methyl)-2-methylpyrrolidin-1-yl)-3-phenylpropan-1-one]
< 10 µM: all assays above
